From article PMC6691761, “Potential multifunctional agents with anti-hepatoma and anti-inflammation properties by inhibiting NF-кB activation” (Journal of Enzyme Inhibition and Medicinal Chemistry, 2019)

Assays:
[1] = tested on: p-IκBα in LPS-stimulated RAW264.7 cells; test: LPS-stimulated phosphorylation of IκBα in RAW264.7 cells; assay type: cell-based; settings: RAW264.7, 1.0, 2.0, 4.0 μM
Experimental: (§1) The HepG2 cells were treated with BAP 96 at different concentrations (1.0, 2.0, and 4.0 µM) for 3 h, and washed twice by PBS. The cells were lysed and the extracted proteins of cell lysates were separated by 10% SDS-PAGE gel electrophoresis, then transferred onto polyvinylidene fluorides membranes. The membranes were probed with antibodies and visualized using an enhanced chemiluminescence (ECL) detection kit.
(§2) It is known that NF-κB has been implicated in the crossroad of inflammation and cancer[25]^,[26]. In our previous study, some BAPs (such as 23 and 67) could inhibit NF-κB activation by inhibiting the phosphorylation of NF-κB (P65) and IκB[13]^,[14]. Herein, it is an urgent to resolve whether 96 has the same mechanism of action as 23 and 67. Therefore, the RAW264.7 cells were pretreated with LPS, and then treated with different concentrations (1.0, 2.0, 4.0 μM) of 96. […] Similarly, the HepG2 cells were pretreated with TNF-α, then treated with different concentrations (1.0, 2.0, and 4.0 μM) of 96.

[2] = Body weight of xenograft mice; assay type: in vivo; settings: 0.2, 1.0, 5.0 mg/kg i.p. every 2 d for 20 days
Experimental: (§3) The HepG2 cells xenografts were established using the Balb/c nude mice (female, 7-week-old, 17–19 g, n = 30) (Shanghai Laboratory Animal Center, Shanghai Shi, China) were used to investigate the anti-hepatoma effect of 96. Animal experiments were reviewed and approved by the Binzhou Medical University Experimental Animal Committee. Briefly, HepG2 cells (1 × 10^7/0.2 ml PBS/mouse) were inoculated subcutaneously. Three days after the inoculation, the mice were randomly divided into five groups: the saline treated group (Control), 96 (0.2 mg/kg) group, 96 (1.0 mg/kg) treated group, 96 (5.0 mg/kg) treated group, and DOX (1.0 mg/kg) treated group. 96 were dissolved in saline containing 1% of DMSO and administered intraperitoneally every 2 d for 20 days. DOX was also administered intraperitoneally every 2 d for 20 d. The body weight and HepG2 xenografts volumes were recorded from the day of treatment, and xenografts volumes were calculated using the equation: tumour volume = length×(width)[2]×π/6. At the end of the experiment, mice were sacrificed and the xenografts were obtained for western blotting, HE staining and immunohistochemistry staining.

[3] = tested on: human liver hepatocellular carcinoma cell line (HepG2); test: Cytotoxicity, MTT assay, HepG2; assay type: cell-based; settings: for IC50: MTT, 24 h
From the text: (§4) Compounds 83–102 were screened against human neoplastic cell lines, such as human breast cancer cells (MCF-7), human colon cancer cells (HCT116), human lung carcinoma cells (A549), human gastric adenocarcinoma cells (SGC7901), human liver hepatocellular carcinoma cell line (HepG2), human cervical carcinoma cells (HeLa), human acute mononuclear granulocyte leukaemia (THP-1), and human normal hepatic cell line (LO2) using modified MTT assay. All the cells were obtained from the American Type Culture Collection (ATCC, Manassas, VA). The cells were cultured in DMEM or 1640. Positive controls (Doxorubicin (DOX) and Curcumin) and BAPs were initially dissolved in dimethyl sulphoxide (DMSO). Experimental concentration of DMSO was always 0.1% (v/v). The concentrations of BAPs and positive controls were 50, 20, 10, 5, 2.5, 1, 0.5, 0.1, 0.05, and 0.01 μg/mL.
(§5) The cells (1 × 10^4 cells/well) were seeded in a 96-well plate and incubated for 24 h. Cells treated with serial concentrations of drugs were incubated for another 24 h. After the media removed, 20 μL of MTT (5 mg/mL) solution was added and incubated for 4 h at 37 °C. The MTT solution was removed and then 150 μL of DMSO was added. The optical density was measured with a multi-well plate reader (TECAN, Mӓnnedorf, Switzerland) at 570 nm. The results are expressed as a decrease in the cell viability (%) in comparison to untreated controls. The concentration of each compound was examined in triplicate, and the IC50 values are expressed in Table 1.

[4] = tested on: human breast cancer cells (MCF-7); test: Cytotoxicity, MTT assay, MCF-7; assay type: cell-based
From the text: as §4, §5

[5] = tested on: human gastric adenocarcinoma cells (SGC7901); test: Cytotoxicity, MTT assay, SGC7901; assay type: cell-based
From the text: as §4, §5

[6] = tested on: p-IκBα in TNF-α-stimulated HepG2 cells; test: TNF-α-stimulated phosphorylation of IκBα in HepG2 cells; assay type: cell-based, human; settings: HepG2, 1.0, 2.0, and 4.0 μM
Experimental: as §1, §2

[7] = tested on: TNF-α expression in HepG2 xenografts; test: Immunohistochemistry staining of TNF-α in HepG2 xenografts; assay type: in vivo, Balb/c nude mice; settings: 96 5.0 mg/kg, DOX 1.0 mg/kg, versus model group
Experimental: as §3
The HepG2 xenografts tissues were embedded using the paraffin, and sectioned for HE staining and immunohistochemistry staining. HE staining was performed routinely. The immunohistochemistry staining carried out as following. […]

HepG2 cells = test: Apoptosis assay, annexin V staining, flow cytometry; assay type: cell-based, human; settings: 2.0 μM, 24 h
Experimental: After treated with BAP 96 (1.0, 2.0, and 4.0 μM) and DMSO for 24 h. HepG2 cells were washed and added with 500 μL of Binding Buffer, 5 μL of Annexin V-EGFP and 5 μL of Propidiumlodide and mix (BD Biosciences, San Jose, CA) according to the manufacturer’s instruction. The mixed solution was gently vortexed and incubated in the dark at RT for 15 min. The results were detected by flow cytometry (BD FACS Calibur, San Jose, CA) within 1 h.

[8] = tested on: human lung carcinoma cells (A549); test: Cytotoxicity, MTT assay, A549; assay type: cell-based; settings: for IC50: MTT, 24 h
From the text: as §4, §5

[9] = tested on: C-caspase-3 expression in HepG2 cells; test: Western blot, C-caspase-3 expression in HepG2 cells; assay type: cell-based, human; settings: HepG2, 1.0, 2.0, and 4.0 μM
Experimental: as §1

[10] = quotient of IC50 towards LO2 cells

Question: Which “Expression level of LPS-induced p-IκBα” value [1] does the source give for CN1CC(=Cc2cccc(N=Cc3cc(Br)ccc3O)c2)C(=O)C(=Cc2ccccc2F)C1 [Compound 96] here?
Answer: effectively decreased in a dose-dependent manner

Question: And the “Toxicity judged by mice body weight” value [2]?
Answer: correspondingly nontoxic at the experimental doses

Question: And the IC50 ([3]; Homo sapiens, HepG2, 24 h)?
Answer: < 2 µM

Question: And the IC50 [3]?
Answer: 1 ± 0.4 µM

Question: What about the “HepG2 SI (selectivity index)” value [3, 10] of the same molecule?
Answer: 19.9

Question: And the IC50 ([4]; Homo sapiens, MCF7, MTT, 24 h)?
Answer: 2.5 ± 0.2 µM

Question: What about the “MCF-7 SI (selectivity index)” value [4, 10] of the same molecule?
Answer: 8.0

Question: What about the IC50 ([5]; Homo sapiens, SGC-7901, MTT, 24 h) of the same molecule?
Answer: 2.4 ± 0.8 µM

Question: And the “SGC7901 SI (selectivity index)” value [5, 10]?
Answer: 8.3

Question: And the “Phosphorylation of IκBα induced by TNF-α” value [6]?
Answer: dose-dependent downward trend

Question: What about the “TNF-α expression, immunohistochemistry” value [7] of the same molecule?
Answer: significantly reduced

Question: And the “Apoptosis rate of HepG2 cells” value (HepG2 cells)?
Answer: 24.4%

Question: And the IC50 ([8]; Homo sapiens, A549, 24 h)?
Answer: < 2 µM

Question: What about the IC50 [8] of the same molecule?
Answer: 1.6 ± 0.4 µM

Question: And the “A549 SI (selectivity index)” value [8, 10]?
Answer: 12.4

Question: What about the “Expression of C-caspase-3” value [9] of the same molecule?
Answer: dose-dependently increased
